The source of these data is patent USRE49816E1, “Dipeptides as inhibitors of human immunoproteasomes” (CORNELL UNIVERSITY, priority 2014, dated 2024).

Read-outs that look alike come from different tables or passages of the source.

Data set [1] concerns proteasome inside the Karpas 1106p cells. Put plainly: Cell-based Proteasome-Glo assay after compound removal. Also on record: species or system human. Particulars: 4 hours, read-out: Proteasome-glo β5-IC50.
Data set [2] deals with Karpas cells. The data set is described as follows: Accumulation of poly-ubiquitinylated proteins in Karpas cells (anti-ub blot). Format: cell-based, human. Particulars: 24 hours treatment. The method, then:
FIGS. 5A-C show experimental results relating to SAR studies and target engagement inside the cells. FIG. 5A is a graph showing experimental results relating to inhibition of i-20S β5i and c-20S β5c by selected dipeptides. […] FIG. 5C is an image of an SDS-page gel showing accumulation of poly-ubiquitinylated (ub) proteins. Karpas cells were treated with dipeptides, or with bortezomib as a control, at indicated concentrations for 24 hours, and the poly-ub proteins in the lysates were blotted with anti-ub antibody and visualized with a second antibody directed against the first antibody and tagged with a dye that absorbs infrared light (Odyssey® CLx imaging system, LICOR).

The subject of data set [3] is Karpas 1106p cells. Put plainly: Cytotoxicity (LD50) against Karpas lymphoma cells. Format: cell-based, human. Particulars: Table 4.
Data set [4] addresses hu i-20S β5i-subunit (Homo sapiens, UniProt P20618+P28062). Put plainly: N,C-capped dipeptides IC50, Ac-ANW-AMC fluorescence assay. Format: biochemical. Particulars: for SI (selectivity index): Hu c-20S over Hu i-20S.
Protocol: (§1) All inhibitory assays for N,C capped dipeptides were performed in a black solid-bottom 96-well plate. In general, compound plates were prepared starting from 10 mM in 3× series dilution to 15 μM. 1 μl of DMSO stock was transferred to a black 96-well plate and 100 μL of reaction mixture were added 15 μM N-acetyl-Alanine-Asparagine-Tryptophan-7-amino-4-methylcourmarin (Ac-ANW-AMC) or 25 μM succinyl-Leucine-Leucine-Valine-Tyrosine-7-amino-4-methyl-courmarin (succ-LLVY-AMC), 0.4 nM hu i-20S β5i-subunit or 0.2 nM hu c-20S β5c-subunit, 0.02% SDS, 1% BSA, 0.5 mM EDTA in 20 mM HEPES buffer at pH7.5. The plates were then spun at 1000 rpm for 1 minute, and the fluorescence units of each well were recorded at λex=360 nm, λem=460 nm for 2 hours. The slopes of the initial linear range of the time course were used to calculate the velocity, and relative activities were normalized to the velocities of the DMSO control.
Data set [5] has as its target hu c-20S β5c-subunit (Homo sapiens, UniProt P20618+P28074). Put plainly: N,C-capped dipeptides IC50, succ-LLVY-AMC fluorescence assay. Format: biochemical.
Protocol: as §1
Data set [6] has as its system Karpas 1106p cells. Put plainly: Cytotoxicity (LD50) against Karpas lymphoma cells. Format: cell-based, human. Particulars: Table 3. From the text: Table 3 lists the inhibition kinetic parameters, selectivity index, and calculated log Ps of selected dipeptides.
Data set [7] concerns the target hu i-20S β5i (Homo sapiens, UniProt P20618+P28062). The data set is described as follows: Kinetic parameters of oxathiazolones vs hu i-20S β5i. Format: biochemical. Particulars: for kinact: printed value is kinact × 10^3.
Data set [8] deals with hu c-20S β5c (Homo sapiens, UniProt P20618+P28074). The data set is described as follows: Kinetic parameters of oxathiazolones vs hu c-20S β5c. Format: biochemical. The following applies: Hu20S β5c; from slopes of kobs vs [I].

In general, IC50 refers to the concentration that gives 50% inhibition. As to `CC(C)C[C@H](NC(=O)[C@H](Cc1ccccc1)NC(=O)c1cnccn1)B(O)O` [Bortezomib, reference compound], the IC50 in data set [1] was determined as 0.6 nM. The “accumulation of poly-ubiquitinylated proteins” value in data set [2] is “accumulation”. Besides, the “LD50 Karpas” value in data set [3] is 0.0017 µM.
In the case of `COC[C@H](NC(=O)OC(C)(C)C)C(=O)N[C@@H](C)C(=O)NCc1cccc2ccccc12` [DPLG-2032, tert-butyl ((S)-3-methoxy-1-(((S)-1-((naphthalen-1-ylmethyl)amino)-1-oxopropan-2-yl)amino)-1-oxopropan-2-yl)carbamate], the IC50 in data set [4] is 77800 nM; in data set [5], over 100000 nM; in data set [1] it was over 100000 nM. Besides, the LD50 in data set [6] is 37 µM. For the same compound, the “LD50 Karpas” value in data set [3] was over 100 µM.
Consider `COC[C@H](NC(=O)[C@H](CC(=O)NOC(C)(C)C)NC(=O)CCc1ccccc1)C(=O)NCc1cccc2ccccc12` [DPLG-2086, (S)—N^4-(tert-butoxy)-N^1—((S)-3-methoxy-1-((naphthalen-1-ylmethyl)amino)-1-oxopropan-2-yl)-2-(3-phenylpropanamido)succinamide], for which the IC50 in data set [1] came out at 5 nM. The LD50 in data set [6] stood at 0.46 µM. Also, in data set [2], the “accumulation of poly-ubiquitinylated proteins” value was “accumulation of poly-Ub proteins”. For the same compound, the “LD50 Karpas” value in data set [3] stood at 0.46 µM.
Turning to `C[C@H](NC(=O)[C@H](CC(=O)NOC(C)(C)C)NC(=O)CCCc1ccccc1)C(=O)NCc1cccc2ccccc12` [DPLG-2127, (S)—N4-(tert-butoxy)-N1-((S)-1-((naphthalen-1-ylmethyl)amino)-1-oxopropan-2-yl)-2-(4-phenylbutanamido)succinamide], the IC50 in data set [1] came to 160 nM. Besides, the LD50 in data set [6] was over 100 µM. The “LD50 Karpas” value in data set [3] is over 100 µM.
As for `COC[C@H](NC(=O)[C@H](CC(=O)NOC(C)(C)C)NC(=O)CCc1ccccc1)C(=O)NCc1cccc(OC)c1` [DPLG-2160, (S)—N^4-(tert-butoxy)-N^1—-((S)-3-methoxy-1-((3-methoxybenzyl)amino)-1-oxopropan-2-yl)-2-(3-phenylpropanamido)succinamide], the IC50 in data set [4] amounted to 9.4 nM; in data set [5] it was 98 nM; in data set [1], 19 nM. In data set [4], the “SI (selectivity index)” value was found to be 10. For the same compound, in data set [6], the LD50 worked out at 0.05 µM. Moreover, in data set [3], the “LD50 Karpas” value is 0.05 µM.
Consider `C[C@H](NC(=O)[C@H](CC(=O)NOC(C)(C)C)NC(=O)C(F)(F)F)C(=O)NCc1cccc2ccccc12` [DPLG-2106, (S)—N4-(tert-butoxy)-N1-((S)-1-((naphthalen-1-ylmethyl)amino)-1-oxopropan-2-yl)-2-(2,2,2-trifluoroacetamido)succinamide], for which the IC50 in data set [1] was found to be 1460 nM. This compound returned an LD50 in data set [6] of 7.8 µM. In data set [3], the “LD50 Karpas” value was 7.8 µM.
In the case of `C[C@H](NC(=O)[C@H](CC(=O)NOC(C)(C)C)NC(=O)CCc1ccccc1)C(=O)NCc1cccc2[nH]ccc12` [DPLG-2083, (S)—N^1—((S)-1-(((1H-indol-4-yl)methyl)amino)-1-oxopropan-2-yl)-N^4-(tert-butoxy)-2-(3-phenylpropanam-ido)succinamide], the results for the half-inhibitory concentration (IC50) in data set [4], in data set [5] and in data set [1] were 25 nM, 240 nM and 160 nM, respectively. For the same compound, the “SI (selectivity index)” value in data set [4] was determined as 10. In data set [6], this compound gave an LD50 of 0.254 µM. Moreover, in data set [3], the “LD50 Karpas” value worked out at 0.254 µM.
The kinact/KI is the second-order rate constant of inactivation. The kinact is the maximal first-order rate at which the target is inactivated. Usually Ki stands for a measure of affinity in units of concentration, obtained from inhibition or displacement. For the compound `O=c1oc(-c2ccccn2)ns1` [HT1043], in data set [7] (Hu20S β5i), the inactivation efficiency (kinact/KI) was found to be 129 M⁻¹ s⁻¹ and the kinact is 0.00025 s⁻¹. Besides, the Ki in data set [7] (Hu20S β5i, read-out: KI) was 2000 nM. Besides, the kinact/KI in data set [8] turned out to be 0.2 M⁻¹ s⁻¹.
Consider `COC[C@H](NC(=O)CCc1ccccc1)C(=O)N[C@@H](Cc1ccc(F)cc1)C(=O)NCc1cccc2ccccc12` [DPLG-2054, (S)-3-(4-fluorophenyl)-2-((S)-3-methoxy-2-(3-phenylpropanamido)propanamido)-N-(naphthalen-1-ylmethyl)propanamide], for which, in data set [4], the IC50 is over 100000 nM and the “SI (selectivity index)” value was under 0.8. Further, the IC50 in data set [5] amounted to 75800 nM. For the same compound, the LD50 in data set [6] was over 100 µM.
The like results for `CC(C)[C@H](NC(=O)[C@H](CC(=O)NOC(C)(C)C)NC(=O)CCc1ccccc1)C(=O)NCc1cccc2ccccc12` [DPLG-2224, (S)—N^4-(tert-butoxy)-N^1—((S)-3-methyl-1-((naphthalen-1-ylmethyl)amino)-1-oxobutan-2-yl)-2-(3-phenylpropanamido)succinamide] were, in that order, 4.3 nM, 53, 228 nM and over 100 µM.
The like results for `Cc1ccc(S(=O)(=O)N[C@@H](CCC(=O)NC(C)(C)C)C(=O)N[C@@H](C)C(=O)NOc2ccccc2)cc1` [DPLG-3017] were, in that order, 99 nM, 6, 600 nM and 6.33 µM.
As to `COC[C@H](NC(=O)[C@H](CC(=O)NOC(C)(C)C)NS(=O)(=O)c1ccc(C)cc1)C(=O)NCc1cccc2ccccc12` [DPLG-2150, (S)—N^4-(tert-butoxy)-N^1—((S)-3-methoxy-1-((naphthalen-1-ylmethyl)amino)-1-oxopropan-2-yl)-2-((4-methylphenyl)sulfonamido)succinamide], the IC50 in data set [4] came to 4.4 nM; in data set [5], 610 nM; in data set [1], 9 nM. The “SI (selectivity index)” value in data set [4] was 139. Moreover, the LD50 in data set [6] turned out to be 0.8 µM. The “LD50 Karpas” value in data set [3] amounted to 0.8 µM.
As to `Cc1sc(-c2nsc(=O)o2)cc1[N+](=O)[O-]` [HT1171], in data set [7] (Hu20S β5i), the kinact/KI was determined as 1010 M⁻¹ s⁻¹ and the kinact amounted to 0.00077 s⁻¹. Also, the Ki in data set [7] (Hu20S β5i, read-out: KI) was found to be 760 nM. In data set [8], the kinact/KI came to 10.1 M⁻¹ s⁻¹.
Regarding `O=c1oc(-c2ccc(-c3ccccc3)cc2)ns1` [HT2004], the affinity in data set [7] corresponds to a Ki of 1400 nM.
With `C[C@H](NC(=O)[C@H](CC(=O)NC1COC1)NC(=O)CCc1ccccc1)C(=O)NCc1cccc2ccccc12` [DPLG-2130, (S)—N1-((S)-1-((naphthalen-1-ylmethyl)amino)-1-oxopropan-2-yl)-N4-(oxetan-3-yl)-2-(3-phenylpropanamido)succinamide], the IC50 in data set [1] turned out to be 1130 nM. In data set [6], the LD50 worked out at 67.8 µM. Moreover, in data set [3], the “LD50 Karpas” value was determined as 67.8 µM.
Take `C[C@H](NC(=O)[C@H](CC(=O)NOC(C)(C)C)NC(=O)CCc1ccccc1)C(=O)NCc1cccc2ccccc12` [DPLG-2058]: the half-maximal inhibitory concentration (IC50) in data set [1] came to 9 nM. Also, in data set [6], the LD50 stood at 34.4 µM. Further, in data set [3], the “LD50 Karpas” value turned out to be 34.4 µM.
Take `Cc1ccc(S(=O)(=O)N[C@@H](CC(=O)NOC(C)(C)C)C(=O)N[C@@H](C)C(=O)NCc2cccc3ccccc23)cc1` [DPLG-2091, (S)—N4-(tert-butoxy)-2-((4-methylphenyl)sulfonamido)-N1-((S)-1-((naphthalen-1-ylmethyl)amino)-1-oxopropan-2-yl)succinamide]: the IC50 in data set [4] came to 26 nM; in data set [5] it was 2300 nM; in data set [1], 64 nM. In data set [4], the “SI (selectivity index)” value was 88. In addition, the LD50 in data set [6] turned out to be 5.3 µM. The “LD50 Karpas” value in data set [3] was determined as 5.3 µM.
